Measured values: patent US4732986A, “Benzothiazole derivatives, processes for their preparation and pharmaceutical compositions containing these compounds” (Ludwig Heumann & Co. GmbH, priority 1984, dated 1988)

Legend:
[1] = test system: acute inflammatory oedema of the paws; assay: Rat's paw oedema test (carrageenin), inhibition of the increase in paw volume; format: in vivo; conditions: po, 1 h, male rats, intragastral, one hour after carrageenin
Description: An acute inflammatory oedema of the paws was induced in male rats (100-120 g) by subplantar injection of 0.1 ml of 2% carrageenin (dissolved in aqueous 0.9% NaCl solution). The volume of the paws was measured with a volumetric paw measuring apparatus 1 hour and 4 hours after the carrageenin injection. The differences between the two measurements of the paws was calculated. The test substances were suspended in 1% tylose and administered intragastrally through a stomach tube one hour after the carrageenin injection. The control animals were only given the vehicle (1% tylose). The percentage inhibition of the increase in volume in the treated animals was obtained by a comparison with the untreated controls. The average inhibitory doses (ED50) were calculated by means of the regression curves.

[2] = test system: leucocyte migration; assay: Leucocyte migration test (carrageenin-impregnated polyester sponge); format: in vivo; conditions: male rats, 50 mg/kg i.g., given immediately after sponge implantation and after 5 and 21 hours
Description: 2. Leucocyte migration test
A polyester sponge impregnated with 2% carrageenin solution was implanted subcutaneously in the neck region in male rats (140-150 g) (see G. A. Higgs et al, Eur. J. Pharmacol. 66, 81 (1980), A. W. Ford-Hutchinson et al, J. Pharmacol. Methods 1, 3 (1978)). The sponges were removed after 24 hours. The leucocytes which had migrated in were washed out in a PBS solution (pH 7.4, 0.5% trypsin, 10 units/ml of heparin) at 37° C. for 30 minutes.
The sponges were then carefully pressed out and centrifuged (10 minutes, 500 revs/min). The leucocytes in the washing liquid were then counted. The test substances, which were taken up in 1% tylose, and the vehicle (1% tylose) were administered intragastrally with a stomach tube immediately after implantation of the sponge and after 5 hours and 21 hours. The percentage inhibition of leucocyte migration after administration of the test substances was compared with that of the controls. The average inhibitory doses (ED50) were calculated by means of the regression graphs.

[3] = test system: PGE 2-synthesis and -release (cyclooxygenase); assay: Inhibition of PGE 2-synthesis and -release in vitro; format: cell-based
Description: (§1) 3. Inhibition of PGE 2- and LTC 4-synthesis and -release

[4] = test system: LTC 4-synthesis and -release (lipoxygenase); assay: Inhibition of LTC 4-synthesis and -release in vitro; format: cell-based
Description: as §1

| SMILES | ED50 [1] [mg/kg] | Inhibition of leucocyte migration (control = 0%) [2] [%] | further results |
| --- | --- | --- | --- |
| CN(C)C=NNc1nc2ccccc2s1 [Example 1, N^1-(benzothiazol-2-yl)-N^3,N^3-dimethylformamidrazone] | 14 | 25 | PGE2 (% of controls) ([3]; at 10^-4): 29 % of controls; PGE2 (% of controls) ([3]; at 10^-5): 84 % of controls; PGE2 (% of controls) ([3]; at 10^-6): 99 % of controls; cyclooxygenase inhibition (in words) ([3]; conclusion from PGE2 test): cyclooxygenase inhibitor; LTC4 (% of controls) ([4]; at 10^-4): 51 % of controls; lipoxygenase inhibition (in words) ([4]; at 10^-4, conclusion from LTC4 test): lipoxygenase inhibition at 10^-4; LTC4 (% of controls) ([4]; at 10^-5): > 100 % of controls; LTC4 (% of controls) ([4]; at 10^-6): > 100 % of controls |
| CCOC(C)=NNc1nc2ccccc2s1 [Example 5, N^2-(benzothiazol-2-yl)-ethyl-acetohydrazonate] | 25 | 30 |  |
| CN(NC=O)c1nc2ccccc2s1 [Example 4, N^2-(benzothiazol-2-yl)-N^2-methyl-formhydrazide] | 50 | 50 |  |
| CN(C)C=NN(C)c1nc2ccccc2s1 [Example 2, N^1-(benzothiazol-2-yl)-N^1,N^3,N^3-trimethylformamidrazone] | 15 |  |  |
| CC(=O)NNc1nc2ccc(C)cc2s1 [Example 6, N^2-(6-methylbenzothiazol-2-yl)-acetohydrazide] | 50 |  |  |
| CC=NNc1nc2ccc(C)cc2s1 [Example 7, N-(6-methylbenzothiazol-2-yl)acetaldehydehydrazone] | 25 |  |  |
| CC=NNc1nc2cc(Cl)ccc2s1 [Example 8] | ~80 |  |  |
